Here are results for 27 compounds from patent US9938222B2 (BRISTOL-MYERS SQUIBB COMPANY, priority 2014, dated 2018).

For orientation: pEC50 means the negative decadic logarithm of the EC50, by convention in mol/L.

pEC50: −log10 of the molar value.

Sequence of human GPR120 (Q5NUL3 whole entry): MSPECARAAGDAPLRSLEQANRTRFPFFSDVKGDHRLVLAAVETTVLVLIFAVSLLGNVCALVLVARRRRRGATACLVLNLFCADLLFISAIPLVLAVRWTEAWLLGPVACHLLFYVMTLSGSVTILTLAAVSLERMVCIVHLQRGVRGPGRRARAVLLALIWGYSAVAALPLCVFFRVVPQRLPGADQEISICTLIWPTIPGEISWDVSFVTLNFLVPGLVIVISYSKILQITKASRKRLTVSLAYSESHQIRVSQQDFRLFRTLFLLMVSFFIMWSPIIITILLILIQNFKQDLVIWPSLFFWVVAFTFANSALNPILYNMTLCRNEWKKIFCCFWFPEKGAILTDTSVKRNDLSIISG

The experiment concerns the target human GPR120 (Homo sapiens (Human), UniProt Q5NUL3). Description: GPR120 pERK AlphaScreen SureFire Assay (human GPR120 pERK assay). Format: cell-based. As to conditions: CHO cells stably transfected with short form of human GPR120. From the text: GPR120 activity was monitored by measuring phosphorylation of ERK (pERK), since G protein receptors are known to activate the ERK signaling cascade either directly and/or through recruitment of arrestin that serves as a scaffold for downstream signaling events.
GPR120 pERK AlphaScreen SureFire Assay
The human and mouse GPR120-mediated intracellular phosphorylated ERK assays were established using CHOA12 cells stably transfected with the short form of human or mouse GPR120 receptor. Cells were cultured in growth medium consisting of F-12 media (Invitrogen Cat. #11765) with 5% Charcoal/Dextran FBS (Invitrogen Cat. #12676-029), 500 μg/mL GENETICIN® (Life Technologies Cat. #10131-027) and 250 μg/mL Zeocin (Invitrogen Cat. #R250-01). Cells were cryo-preserved at a concentration of 2×10^7 cells/mL, in 90% Charcoal/Dextran FBS and 10% DMSO, and frozen in liquid nitrogen at a low passage number.
For the pERK assay, 2×10^7 cells/mL cryopreserved human and mouse cells were thawed rapidly in a 37° C. water bath and added to a T-225 flask containing 50 mL growth medium. The flasks were placed in a tissue culture incubator overnight (37° C., 5% CO2). The next day, cells were harvested with trypsin (Gibco Cat. #25300-054), resuspended in serum-containing growth medium and counted using a Cellometer and volume adjusted to a concentration of 0.6×10^6 cells/mL. Cells were plated into 384-well clear bottom tissue culture plates (BD Cat. #353962) at 50 μL/well, for a density of 30,000 cells/well using a MULTIDROP® and incubated for 16-18 hours (overnight) at 37° C. with 5% CO2. The next day, cells were serum starved in 30 μL of F-12 media without any serum or antibiotics for 2 hours at 37° C.
Test compounds were 3-fold, 11-point serially diluted in DMSO in a REMP assay plate (Matrix Cat. #4307) by Tecan and 5 μL was transferred into an ECHO source plate (Labcyte Cat. #LC-0200). Cells were then stimulated with 50 nL of compound dilutions using ECHO liquid handler for 7 min at 37° C. Compounds ranged from final assay concentrations of 33.33 μM to 0.56 nM.
The media was then dumped and cells lysed with 20 μL of 1× Lysis buffer from the AlphaScreen SureFire Phospho-ERK 1/2 Kit (Perkin Elmer Cat. #6760617M). The lysis buffer was diluted 5-fold with water before use. The plate was agitated on a shaker for 10 min after which 2 μL was transferred into a 384-well white proxiplate (Perkin Elmer Cat. #6008289). The SureFire assay reagent mix was prepared by mixing 60 parts Reaction Buffer, 10 parts Activation Buffer, 1 part Donor Beads, 1 part Acceptor Beads (Perkin Elmer Cat. #TGRES10K). 3.5 μL/well of this reagent mix was manually added to the proxiplate with a multichannel pipettor. Plates were spun down at 1000 rpm for 2 min, followed by light-protected incubation at room temperature for 2 hours. The plates were read on the Alpha-technology compatible Envision multilabel plate reader using AlphaScreen protocol according to manufacturer's specifications. The agonist effect of compounds was expressed as 100×(average sample-average blank)/(average total-average blank) where sample is the luminescence activity in the presence of test compound, blank is equal to the luminescence activity in the presence of DMSO control and the total is signal induced by 50 μM linolenic acid as reference compound. Activation data for the test compound over a range of concentrations was plotted as percentage activation of the test compound (100%=maximum response). After correcting for background, EC50 values were determined. The EC50 is defined as the concentration of test compound which produces 50% of the maximal response and was quantified using the 4 parameter logistic equation to fit the data.
The human and mouse GPR120-mediated intracellular phosphorylated ERK assays were also established using CHO-K1 cells stably transfected with the short form of human or mouse GPR120 receptor. […]
`O=C(O)[C@@H]1C[C@H]1COc1ccc(-c2cc(Oc3ccc(F)cc3)ccc2F)cc1` (racemic) [Example 44, Trans-2-(((2′-fluoro-5′-(4-fluorophenoxy)-[1,1′-biphenyl]-4-yl)oxy)methyl)cyclopropanecarboxylic acid] showed a pEC50 of 6.57.

In turn, `CC(C)Oc1cc(F)c(F)c(-c2ccc(OC[C@@H]3C[C@H]3C(=O)O)c(F)c2)c1` (racemic) [Example 65, Trans-2-(((2′,3,3′-trifluoro-5′-isopropoxy-[1,1′-biphenyl]-4-yl)oxy)methyl)cyclopropanecarboxylic acid] showed a pEC50 of 6.48.

In the case of `CC(C)Oc1ccc(F)c(-c2ccc(COC[C@@H]3C[C@H]3C(=O)O)cc2)c1` (racemic) [Example 24, Trans-2-(((2′-fluoro-5′-isopropoxy-[1,1′-biphenyl]-4-yl)methoxy)methyl) cyclopropanecarboxylic acid], the pEC50 was 6.36.

Turning to `CC(C)Oc1cc(-c2ccc(OC[C@@H]3C[C@H]3C(=O)O)cc2)c(F)cn1` (racemic) [Example 70, Trans-2-((4-(5-fluoro-2-isopropoxypyridin-4-yl)phenoxy)methyl)cyclopropanecarboxylic acid], the pEC50 is 5.62.

`CC(C)Oc1ccc(F)c(-c2ccc(OC[C@@H]3C[C@@H]3C(=O)O)cc2)c1` (single isomer, unassigned) [Example 8] showed a negative logarithm of the EC50 (pEC50) of 5.54.

For `O=C(O)[C@@H]1C[C@H]1COCc1ccc(-c2cc(Oc3ccccc3)ccc2F)cc1` (racemic) [Example 25, Trans-2-(((2′-fluoro-5′-phenoxy-[1,1′-biphenyl]-4-yl)methoxy)methyl) cyclopropanecarboxylic acid], the pEC50 is 6.01.

Turning to `CC(C)Oc1cccc(-c2ccc(CC[C@@H]3C[C@H]3C(=O)O)cc2)c1` (racemic) [Example 131, Trans-2-(2-(3′-isopropoxy-[1,1′-biphenyl]-4-yl)ethyl) cyclopropanecarboxylic acid], the negative logarithm of the EC50 (pEC50) was 6.04.

For the compound `O=C(O)[C@@H]1C[C@H]1COc1ccc(-c2cc(C(F)(F)F)cnc2Cl)cc1` (racemic) [Example 122, Trans-2-((4-(2-chloro-5-(trifluoromethyl)pyridin-3-yl)phenoxy)methyl)cyclopropanecarboxylic acid], the negative logarithm of the EC50 (pEC50) is 5.87.

In the case of `COc1cc(OC(F)(F)F)cc(-c2ccc(OC[C@@H]3C[C@H]3C(=O)O)cc2)c1` (racemic) [Example 74, Trans-2-(((3′-methoxy-5′-(trifluoromethoxy)-[1,1′-biphenyl]-4-yl)oxy)methyl)cyclopropanecarboxylic acid], the pEC50 is 6.21.

For the compound `O=C(O)C1CC1COc1ccc(-c2cc(Oc3cccc(F)c3)cc(F)c2F)cc1F` (racemic) [Example 104, Trans-2-(((2′,3,3′-trifluoro-5′-(3-fluorophenoxy)-[1,1′-biphenyl]-4-yl)oxy)methyl)cyclopropanecarboxylic acid], the pEC50 is 7.05.

Turning to `O=C(O)[C@@H]1C[C@@H]1COc1ccc(-c2cc(Oc3ccccc3)ccc2F)cc1` (single isomer, unassigned) [Example 5], the pEC50 was 5.68.

`COc1cc(-c2cc(Oc3cccc(F)c3)ccc2F)ccc1OC[C@@H]1C[C@H]1C(=O)O` (relative stereo) [Example 99, Trans-2-(((2′-fluoro-5′-(3-fluorophenoxy)-3-methoxy-[1,1′-biphenyl]-4-yl)oxy)methyl) cyclopropanecarboxylic acid] gave a pEC50 of 5.94.

The compound `Cc1cc(-c2cc(OC(C)C)ccc2F)ccc1OC[C@@H]1C[C@H]1C(=O)O` (racemic) [Example 46, Trans-2-(((2′-fluoro-5′-isopropoxy-3-methyl-[1,1′-biphenyl]-4-yl)oxy)methyl)cyclopropanecarboxylic acid] had a pEC50 of 6.51.

The compound `CC[C@@H](C)Oc1ccc(F)c(-c2ccc(OCC3CC3C(=O)O)cc2)c1` (stereo partly drawn) [Example 93, Trans-2-(((5′-((R)-sec-butoxy)-2′-fluoro-[1,1′-biphenyl]-4-yl)oxy)methyl) cyclopropanecarboxylic acid] showed a pEC50 of 6.52.

The compound `CC1(C)Cc2c(ccc(F)c2-c2ccc(OCC3CC3C(=O)O)cc2)O1` (stereo not drawn) [Example 22, 2-((4-(5-Fluoro-2,2-dimethyl-2,3-dihydrobenzofuran-4-yl)phenoxy)methyl) cyclopropanecarboxylic acid] showed a pEC50 of 5.90.

As to `O=C(O)[C@@H]1C[C@H]1COc1ccc(-c2cc(Oc3cccc(F)c3)cnc2Cl)cc1` (racemic) [Example 111, Trans-2-((4-(2-chloro-5-(3-fluorophenoxy)pyridin-3-yl)phenoxy)methyl) cyclopropanecarboxylic acid], the pEC50 is 6.72.

Regarding `O=C(O)C1CC1COc1ccc(-c2cc(OC(F)(F)F)ccc2F)cc1` (single isomer, unassigned) [Example 53, Trans-2-(((2′-fluoro-5′-(trifluoromethoxy)-[1,1′-biphenyl]-4-yl)oxy)methyl)cyclopropanecarboxylic acid], the pEC50 was 6.48.

For `CCSc1cccc(-c2ccc(CC[C@@H]3C[C@H]3C(=O)O)cc2)c1` (racemic) [Example 38, Trans-2-(2-(3′-(ethylthio)-[1,1′-biphenyl]-4-yl)ethyl)cyclopropanecarboxylic acid], the pEC50 was 5.49.

In turn, `Cc1ccc(Oc2cc(F)c(F)c(-c3ccc(OCC4CC4C(=O)O)c(F)c3)c2)cc1F` (single isomer, unassigned) [Example 108] showed a negative-log EC50 (pEC50) of 6.44.

In the case of `O=C(O)[C@@H]1CC1COc1ccc(-c2cc(Oc3cccc(F)c3)ccc2F)cc1F` (stereo partly drawn) [Example 97], the pEC50 was 7.15.

Consider `CC(C)Oc1cc(F)c(F)c(-c2ccc(OC[C@H]3C[C@@H]3C(=O)O)c(F)c2)c1` [Example 67, (1S,2S)-2-(((2′,3,3′-Trifluoro-5′-isopropoxy-[1,1′-biphenyl]-4-yl)oxy)methyl)cyclopropanecarboxylic acid], for which the pEC50 is 6.64.

As to `O=C(O)[C@H]1C[C@H]1COc1ccc(-c2cc(Oc3ccccc3)ccc2F)cc1` (single isomer, unassigned) [Example 6], the pEC50 is 6.39.

Consider `O=C(O)[C@@H]1C[C@H]1CCc1ccc(-c2cc(Oc3ccccc3)ccc2F)cc1` (racemic) [Example 76, Trans-2-(2-(2′-fluoro-5′-phenoxy-[1,1′-biphenyl]-4-yl)ethyl) cyclopropanecarboxylic acid], for which the pEC50 is 6.33.

With `O=C(O)[C@@H]1C[C@H]1CCc1ccc(-c2cccc(-n3cccc3)c2)cc1` (racemic) [Example 129, Trans-2-(2-(3′-(1H-pyrrol-1-yl)-[1,1′-biphenyl]-4-yl)ethyl) cyclopropanecarboxylic acid], the pEC50 is 5.80.

`O=C(O)[C@H]1C[C@@H]1COc1ccc(-c2cc(Oc3ccccc3)ccc2F)cc1F` (single isomer, unassigned) [Example 11] gave a pEC50 of 6.80.

On to `O=C(O)[C@@H]1C[C@H]1COc1ccc(-c2cc(Cl)cc(C(F)(F)F)c2)cc1` (racemic) [Example 124, Trans-2-(((3′-chloro-5′-(trifluoromethyl)-[1,1′-biphenyl]-4-yl)oxy)methyl)cyclopropanecarboxylic acid], for which the pEC50 is 5.61.

Turning to `O=C(O)[C@@H]1C[C@H]1COc1ccc(-c2cc(Cl)cc(OC(F)(F)F)c2)cc1` (racemic) [Example 48, Trans-2-(((3′-chloro-5′-(trifluoromethoxy)-[1,1′-biphenyl]-4-yl)oxy)methyl)cyclopropanecarboxylic acid], the negative-log EC50 (pEC50) was 6.12.
